Values of other authors in patent US20120076863A1, “NANOPARTICULATE STABILIZED ANTI-HYPERTENSIVE COMPOSITIONS” (Elan Pharma International Ltd., priority 2005, published 2012).
Where a name gives a salt, the structure may show the parent alone.

Experiments:
[1] = active metabolite of temocapril

| SMILES | solubility in water | excretion route [1] |
| --- | --- | --- |
| CCOC(=O)[C@H](CCc1ccccc1)N[C@H]1CS[C@H](c2cccs2)CN(CC(=O)O)C1=O [Temocapril hydrochloride, α-{(2S,6R)-6-[(1S)-1-ethoxy-carbonyl-3-phenyl-propyl]amino-5-oxo-2-(2-thienyl)perhydro-1,4-thiazepin-4yl}acetic acid hydrochloride] | only slightly soluble | – |
| O=C(O)CN1C[C@@H](c2cccs2)SC[C@H](N[C@@H](CCc2ccccc2)C(=O)O)C1=O [temocaprilat] | – | excreted predominantly in bile |
